The record followed here is US20220323795A1, “COMBINATION OF CICLOPIROXOLAMINE AND PIROCTONE OLAMINE FOR COMBATING DANDRUFF” (PIERRE FABRE DERMO-COSMETIQUE, priority 2019, published 2022).

As usually defined, the MFC is the smallest concentration meeting the test's criterion for killing the fungus. The term MIC denotes the lowest concentration that inhibits growth of the organism.

Read-outs that look alike come from different tables or passages of the source.

The test system of test [1] is Malassezia restricta. As to the kind of experiment: Fungicidal activity, log reduction of colonies after contact time. It counts as cell-based. The note with it: PO 0.3%, CPO 1.5%, ketoconazole 2%, PO/CPO 0.3%/1.5%, 10^7 CFU/ml. The procedure:
(§1) The products to be tested alone and combined at the defined concentrations are placed in contact with a suspension of Malassezia containing 10^7 CFU/ml for a contact time of 5 minutes, 15 minutes and 30 minutes. After each contact time, a sample is taken, then diluted and filtered on a cellulose membrane. Each membrane is then deposited on the agar medium (Dixon) and incubated at 30° C. After incubation, the colonies are counted.
(§2) The products tested are: • ciclopiroxolamine, at 1.5% (wt/wt) diluted with sterile distilled water, • piroctone olamine at 0.3% (wt/wt) dissolved in ethanol, then addition of water for injectable preparations (final ethanol concentration of 9%), • ketoconazole (positive control) at 2% (wt/wt) dissolved in DMSO, then addition of water for injectable preparations (final concentration of DMSO 9%). • piroctone olamine/ciclopiroxolamine combinations, with respective concentrations of 0.3% and 1.5%.
(§3) The solutions are prepared at the time of the test and used immediately.

In test [2] the test system is Malassezia globosa. Described as above. It counts as cell-based. As to conditions: PO 0.3%, CPO 1.5%, ketoconazole 2%, PO/CPO 0.3%/1.5%, 10^7 CFU/ml. The procedure: as §1, §2, §3
Test [3] concerns M. restricta (CBS7877). As to the kind of experiment: Minimum fungicide concentration (MFC) by subculturing the MIC microplates on agar medium. It counts as cell-based, Malassezia restricta. As to the method:
(§4) The strains originate from the collection of the Institut Pasteur (Fungi collection, Paris France) for M. globosa (IP2387.96) and from the collection of CBS-KNAW for M. restricta (CBS7877). These strains represent and correspond to the majority of strains involved in dandruff. The strains are incubated for 5 days at 30° C. on modified Dixon agar under aerobic conditions. The inoculation suspensions are prepared in sterile distilled water and are concentrated to 10^7 CFU/ml. The determination of the minimum inhibitory concentration (MIC) is performed by micromethod in a liquid medium. 100 μl of liquid culture medium is deposited in each well of a sterile 96-well microplate. 100 μl of the solutions to be tested is deposited in the first well of a line of the plate. Dilutions by a factor of 2 are then carried out for wells 1 to 10. The test suspensions of each microorganism are prepared immediately before use in Tryptone salt. 100 μl is deposited in each well of a second microplate, with the exception of column 11. All of the first plate is inoculated using a Denley multipoint inoculate, from the second microplate. After incubation, the MIC are defined as the largest dilution with the absence of visible growth. Columns 11 and 12 serve respectively as a negative and positive control for growth.
(§5) The products tested are: • ciclopiroxolamine, at 3% (wt/wt) with sterile distilled water, • piroctone olamine at 0.3% (wt/wt) with 10% ethanol, • ketoconazole (positive control) at 1000 μg/ml (wt/wt) with 10% DMSO, • piroctone olamine/ciclopiroxolamine combinations, with respective concentrations of 0.15% and 0.75%.
(§6) The determination of the minimum fungicide concentrations (MFC) is carried out by subculturing the MIC microplates on agar medium, using the Denley multipoint inoculator. After incubation, the MFC are defined as the largest dilution with the absence of visible growth. All the tests were carried out in duplicate.

Test [4] concerns M. globosa (IP2387.96). As to the kind of experiment: Minimum inhibitory concentration (MIC) by micromethod in liquid medium. It counts as cell-based, Malassezia globosa. As to conditions: product alone. The procedure: as §4, §5
(§7) The solutions are prepared at the time of the test and used immediately. An ethanol control was produced, solution at 10%.
(§8) The synergistic effect of two products is determined by calculating the synergy index (FIC, Fractional Inhibitory Concentration).
(§9) FIC Index=(MIC product A combined)/(MIC product alone)+(MIC product B combined)/(MIC product B alone).
(§10) The maximum test concentration corresponds to the concentration of the parent solution/2.

For test [5], the system named is M. globosa (IP2387.96). As to the kind of experiment: Minimum fungicide concentration (MFC) by subculturing the MIC microplates on agar medium. It counts as cell-based, Malassezia globosa. As to conditions: product alone. As to the method: as §4, §5, §6
Test [6] has as its system M. restricta (CBS7877). The experiment in a line: Minimum inhibitory concentration (MIC) by micromethod in liquid medium. It counts as cell-based, Malassezia restricta. The procedure: as §4, §5, §7, §8, §9, §10
Where [7] appears, read: Malassezia restricta, CBS7877, product alone, read-out: MFC.
Setting [8] is: Malassezia globosa, read-out: MIC.
[9] abbreviates: Malassezia globosa, read-out: MFC.
The mark [10] stands for this setting: Malassezia restricta, CBS7877, product alone, read-out: MIC.

For the compound `Cc1cc(C2CCCCC2)n(O)c(=O)c1` [CPO, ciclopiroxolamine], the “Log Reduction” value was 1.99 in test [1] (contact time 5 minutes); 3.3 in test [1] (contact time 15 minutes); greater than 4.17 in test [1] (contact time 30 minutes); 2.45 in test [2] (contact time 5 minutes); 3.88 in test [2] (contact time 15 minutes); greater than 4.22 in test [2] (contact time 30 minutes). The MFC in test [3] (setting [7]) is 15 mg/L; in test [3] (product alone, % (wt/wt)), 1.5 × 10^−3%; in test [5] (setting [9]) it was 29 mg/L; in test [5] (% (wt/wt)), 2.9 × 10^−3%. The MIC is 29 mg/L in test [4] (setting [8]); 2.9 × 10^−3% in test [4] (% (wt/wt)); 15 mg/L in test [6] (setting [10]); 1.5 × 10^−3% in test [6] (product alone, % (wt/wt)).
Take `CC(=O)N1CCN(c2ccc(OCC3COC(Cn4ccnc4)(c4ccc(Cl)cc4Cl)O3)cc2)CC1` (centres unmarked) [Keto, ketoconazole]: the “Log Reduction” value in test [1] (contact time 5 minutes) came to 0.85; in test [1] (contact time 15 minutes), 1.12; in test [1] (contact time 30 minutes), 1.09; in test [2] (contact time 5 minutes), 1.47; in test [2] (contact time 15 minutes), 1.29; in test [2] (contact time 30 minutes), 1.19. The values for the MFC in test [3] (setting [7]) and in test [5] (setting [9]) were 0.49 to 0.98 mg/L and 1.94 mg/L, respectively. Moreover, the results for the MIC in test [4] (setting [8]) and in test [6] (setting [10]) were 0.98 mg/L and 0.49 mg/L, respectively.
Turning to `Cc1cc(CC(C)CC(C)(C)C)n(O)c(=O)c1.NCCO` (centres unmarked) [PO, piroctone olamine], the “Log Reduction” value in test [1] (contact time 5 minutes) was 1.19; in test [1] (contact time 15 minutes) it was 1.28; in test [1] (contact time 30 minutes), 1.73; in test [2] (contact time 5 minutes) it was 0.36; in test [2] (contact time 15 minutes), 0.61; in test [2] (contact time 30 minutes), 1.24. Besides, the MFC is 23 mg/L in test [3] (product alone); 2.3 × 10^−3% in test [3] (product alone, % (wt/wt)); 23 mg/L in test [5]; 2.3 × 10^−3% in test [5] (% (wt/wt)). For the same compound, the MIC in test [4] was 23 mg/L; in test [4] (% (wt/wt)) it was 2.3 × 10^−3%; in test [6] (product alone) it was 23 mg/L; in test [6] (product alone, % (wt/wt)), 2.3 × 10^−3%.
